These compounds were tested against mouse H3R (Mus musculus, UniProt P58406) (assay: receptor binding). Details: PSS cis.
mouse H3R, sequence (P58406 whole entry): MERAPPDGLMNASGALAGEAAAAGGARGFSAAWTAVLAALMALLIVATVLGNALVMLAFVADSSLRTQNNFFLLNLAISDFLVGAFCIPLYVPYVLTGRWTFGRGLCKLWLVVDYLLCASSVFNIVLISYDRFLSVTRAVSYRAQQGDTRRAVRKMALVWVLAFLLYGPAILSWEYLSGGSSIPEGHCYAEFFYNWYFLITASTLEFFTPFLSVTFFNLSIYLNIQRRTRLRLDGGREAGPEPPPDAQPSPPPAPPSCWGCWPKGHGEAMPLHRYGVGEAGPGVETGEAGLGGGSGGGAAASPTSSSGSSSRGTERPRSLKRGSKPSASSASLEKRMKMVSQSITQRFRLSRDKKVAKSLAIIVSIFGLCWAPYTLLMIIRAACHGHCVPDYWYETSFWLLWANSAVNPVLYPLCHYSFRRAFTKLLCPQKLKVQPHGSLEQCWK

**Q.** `c1ccc(/N=N\c2cccc(Cc3c[nH]cn3)c2)cc1` [compound 65, cis-65 (PSS cis)] was tested. Which pKi did it give?
**A.** high nM (trans) to low μM (PSS cis) binding affinities for both mouse and rat

Same assay, conditions: trans

**Q.** Which pKi does the source give for `c1ccc(/N=N/c2cccc(Cc3c[nH]cn3)c2)cc1` [compound 65, trans-65] here?
**A.** high nM (trans) to low μM (PSS cis) binding affinities for both mouse and rat

These compounds were tested against human histamine H3 receptor (hH3R) (Homo sapiens, UniProt Q9Y5N1) (assay: [3H]-Nα-methylhistamine competition binding). Details: not given.
human histamine H3 receptor (hH3R), sequence (Q9Y5N1 whole entry): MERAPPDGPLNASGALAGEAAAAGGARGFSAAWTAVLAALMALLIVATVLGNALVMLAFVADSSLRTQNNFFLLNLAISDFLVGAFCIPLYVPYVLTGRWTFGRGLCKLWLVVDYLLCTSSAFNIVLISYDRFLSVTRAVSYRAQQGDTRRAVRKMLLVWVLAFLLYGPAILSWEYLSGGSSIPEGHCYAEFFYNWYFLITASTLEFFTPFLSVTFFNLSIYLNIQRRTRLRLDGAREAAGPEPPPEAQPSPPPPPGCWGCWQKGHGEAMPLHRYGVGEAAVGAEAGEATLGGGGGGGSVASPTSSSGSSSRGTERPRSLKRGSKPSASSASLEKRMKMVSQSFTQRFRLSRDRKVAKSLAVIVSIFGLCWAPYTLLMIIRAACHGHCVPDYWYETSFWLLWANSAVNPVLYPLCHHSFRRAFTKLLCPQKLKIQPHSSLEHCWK

**Q.** `Cc1cc(Cc2c[nH]cn2)cc(/N=N/c2ccccc2)c1` [compound 74, 74 trans] was tested. Which Ki did it give?
**A.** 1780 nM

**Q.** Which Ki does the source give for `Fc1cccc(/N=N/c2cccc(Cc3c[nH]cn3)c2)c1` [compound 67, 67 trans] here?
**A.** 4.47 nM

**Q.** With `Clc1ccccc1/N=N/c1cccc(Cc2c[nH]cn2)c1` [compound 70, 70 trans] as the compound, how does the Ki read?
**A.** 13.8 nM

**Q.** With `Clc1ccc(/N=N\c2cccc(Cc3c[nH]cn3)c2)cc1` [compound 71, 71 cis (PSS cis)] as the compound, how does the Ki read?
**A.** 1050 nM

**Q.** `Fc1ccc(/N=N\c2cccc(Cc3c[nH]cn3)c2)cc1` [compound 68, 68 cis (PSS cis)] was tested. Which Ki did it give?
**A.** 309 nM

**Q.** For `Cc1c(Cc2c[nH]cn2)cccc1/N=N\c1ccccc1` [compound 72, 72 cis (PSS cis)], which Ki is on record?
**A.** 3550 nM

**Q.** Which Ki does the source give for `Cc1ccc(/N=N/c2cccc(Cc3c[nH]cn3)c2)cc1` [compound 78, 78 trans] here?
**A.** 1910 nM

**Q.** For `Fc1ccccc1/N=N\c1cccc(Cc2c[nH]cn2)c1` [compound 66, 66 cis (PSS cis)], which Ki is on record?
**A.** 81.3 nM

**Q.** With `Cc1cc(Cc2c[nH]cn2)cc(/N=N\c2ccccc2)c1` [compound 74, 74 cis (PSS cis)] as the compound, how does the Ki read?
**A.** 7410 nM

**Q.** Which Ki does the source give for `Fc1cccc(F)c1/N=N\c1cccc(Cc2c[nH]cn2)c1` [compound 69, 69 cis (PSS cis)] here?
**A.** 55 nM

**Q.** For `c1ccc(/N=N\c2cccc(Cc3c[nH]cn3)c2)cc1` [compound 65, cis-65 (PSS cis)], which Ki is on record?
**A.** 32.4 nM

**Q.** With `Cc1c(Cc2c[nH]cn2)cccc1/N=N/c1ccccc1` [compound 72, 72 trans] as the compound, how does the Ki read?
**A.** 2690 nM

**Q.** For `Fc1cccc(F)c1/N=N/c1cccc(Cc2c[nH]cn2)c1` [compound 69, 69 trans], which Ki is on record?
**A.** 10 nM

**Q.** With `Cc1ccccc1/N=N\c1cccc(Cc2c[nH]cn2)c1` [compound 76, 76 cis (PSS cis)] as the compound, how does the Ki read?
**A.** 398 nM

**Q.** `Clc1ccccc1/N=N\c1cccc(Cc2c[nH]cn2)c1` [compound 70, 70 cis (PSS cis)] was tested. Which Ki did it give?
**A.** 141 nM

**Q.** Which Ki does the source give for `Cc1ccccc1/N=N/c1cccc(Cc2c[nH]cn2)c1` [compound 76, 76 trans] here?
**A.** 19.1 nM

**Q.** `Fc1cccc(/N=N\c2cccc(Cc3c[nH]cn3)c2)c1` [compound 67, 67 cis (PSS cis)] was tested. Which Ki did it give?
**A.** 38 nM

**Q.** Which Ki does the source give for `Clc1ccc(/N=N/c2cccc(Cc3c[nH]cn3)c2)cc1` [compound 71, 71 trans] here?
**A.** 174 nM

**Q.** How did the Ki turn out when `Fc1ccc(/N=N/c2cccc(Cc3c[nH]cn3)c2)cc1` [compound 68, 68 trans] was run?
**A.** 20.4 nM

**Q.** For `c1ccc(/N=N/c2cccc(Cc3c[nH]cn3)c2)cc1` [compound 65, trans-65], which Ki is on record?
**A.** 3.8 nM

**Q.** With `Fc1ccccc1/N=N/c1cccc(Cc2c[nH]cn2)c1` [compound 66, 66 trans] as the compound, how does the Ki read?
**A.** 5.25 nM

**Q.** How did the Ki turn out when `Cc1ccc(/N=N\c2cccc(Cc3c[nH]cn3)c2)cc1` [compound 78, 78 cis (PSS cis)] was run?
**A.** 1950 nM

**Q.** With `Cc1cccc(/N=N\c2cccc(Cc3c[nH]cn3)c2)c1` [compound 77, 77 cis (PSS cis)] as the compound, how does the Ki read?
**A.** 347 nM

**Q.** `Cc1cccc(/N=N/c2cccc(Cc3c[nH]cn3)c2)c1` [compound 77, 77 trans] was tested. Which Ki did it give?
**A.** 40.7 nM

Same assay, conditions: kept in dark, >99 % trans

**Q.** How did the “pK i trans ± SEM” value turn out when `Fc1ccc(Cc2c[nH]cn2)cc1/N=N/c1ccccc1` [compound 80, 80 trans] was run?
**A.** 8.39±0.06

**Q.** `Cc1ccc(Cc2c[nH]cn2)cc1/N=N/c1ccccc1` [compound 75, 75 trans] was tested. Which “pK i trans ± SEM” value did it give?
**A.** 7.15±0.03

**Q.** How did the “pK i trans ± SEM” value turn out when `Fc1ccc(/N=N/c2ccccc2)cc1Cc1c[nH]cn1` [compound 79, 79 trans] was run?
**A.** 7.81±0.07

**Q.** How did the “pK i trans ± SEM” value turn out when `Cc1ccc(/N=N/c2ccccc2)cc1Cc1c[nH]cn1` [compound 73, 73 trans] was run?
**A.** 6.90±0.06

Each compound was assayed against rat H3R (Rattus norvegicus, UniProt Q9QYN8) (assay: receptor binding). Details: PSS cis.
rat H3R, sequence (Q9QYN8 whole entry): as the sequence (P58406 whole entry) above, with A15T, T286A, G290A, H387R, V389I counted along it

**Q.** For `c1ccc(/N=N\c2cccc(Cc3c[nH]cn3)c2)cc1` [compound 65, cis-65 (PSS cis)], which pKi is on record?
**A.** high nM (trans) to low μM (PSS cis) binding affinities for both mouse and rat

Same assay, conditions: trans

**Q.** Which pKi does the source give for `c1ccc(/N=N/c2cccc(Cc3c[nH]cn3)c2)cc1` [compound 65, trans-65] here?
**A.** high nM (trans) to low μM (PSS cis) binding affinities for both mouse and rat

— paper PMC6563694 (Angewandte Chemie (International Ed. in English), 2019)
